Reference: PubChem BioAssay AID1963836 (Molecular Pharmacology Branch, DTP, NCI, 2024)
pIC50: −log10 of the molar value.

Test system: 857933-349-R-J2-PDC complex spheroid viability
Test: Anticancer human tumor 857933-349-R-J2-PDC patient-derived colon adenocarcinoma cell line growth inhibition [POLQ]
Conditions: for pIC50: curve of first compound; for viability, T/C: stronger effect = lower value
How it was run: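 PDC + HUVEC + MSC complex spheroids; POLQ inhibitors ± partner drugs; top conc. at/near clinical Cmax, else 10 microM (SN-38 1 microM), half-log dilutions; 37 degrees C, 5% CO2.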

[1] = second compound 0.0316 µM, first compound 0.0316 µM
[2] = second compound 0.0316 µM, first compound 0.1 µM
[3] = second compound 0.0316 µM, first compound 0.316 µM
[4] = second compound 0.0316 µM, first compound 1 µM
[5] = second compound 0.1 µM, first compound 0.0316 µM
[6] = second compound 0.1 µM, first compound 0.1 µM
[7] = second compound 0.1 µM, first compound 0.316 µM
[8] = second compound 0.1 µM, first compound 1 µM
[9] = second compound 0.316 µM, first compound 0.0316 µM
[10] = second compound 0.316 µM, first compound 0.1 µM
[11] = second compound 0.316 µM, first compound 0.316 µM
[12] = second compound 0.316 µM, first compound 1 µM
[13] = second compound 1 µM, first compound 0.0316 µM
[14] = second compound 1 µM, first compound 0.1 µM
[15] = second compound 1 µM, first compound 0.316 µM
[16] = second compound 1 µM, first compound 1 µM
[17] = second compound 3.16 µM, first compound 0.0316 µM
[18] = second compound 3.16 µM, first compound 0.1 µM
[19] = second compound 3.16 µM, first compound 0.316 µM
[20] = second compound 3.16 µM, first compound 1 µM
[21] = second compound 10 µM, first compound 0.0316 µM
[22] = second compound 10 µM, first compound 0.1 µM
[23] = second compound 10 µM, first compound 0.316 µM
[24] = second compound 10 µM, first compound 1 µM
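Also: spheroids exposed to compounds for seven days before readout.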

Question: Which results are given for C#Cc1c(F)ccc2cc(O)cc(-c3ncc4c(N5CC6CCC(C5)N6)nc(OCC56CCCN5CC(F)C6)nc4c3F)c12 (centres undefined) + COC1C(OC(N)=O)C(O)C(Oc2ccc3c(O)c(NC(=O)c4ccc(O)c(CC=C(C)C)c4)c(=O)oc3c2C)OC1(C)C?
Answer: pIC50 (second compound 0.0316 µM): < 5.00; pIC50 (second compound 0.1 µM): < 5.00; pIC50 (second compound 0.316 µM): < 5.00; pIC50 (second compound 1 µM): < 5.00; pIC50 (second compound 3.16 µM): < 5.00; pIC50 (second compound 10 µM): < 5.00; viability, T/C [1]: 106%; viability, T/C [2]: 94.9%; viability, T/C [3]: 92.3%; viability, T/C [4]: 79.2%; viability, T/C (second compound 0.0316 µM, first compound 3.16 µM): 70.8%; viability, T/C (second compound 0.0316 µM, first compound 10 µM): 99.2%; viability, T/C [5]: 102%; viability, T/C [6]: 102%; viability, T/C [7]: 94%; viability, T/C [8]: 80.7%; viability, T/C (second compound 0.1 µM, first compound 3.16 µM): 86.6%; viability, T/C (second compound 0.1 µM, first compound 10 µM): 92.2%; viability, T/C [9]: 98%; viability, T/C [10]: 96.7%; viability, T/C [11]: 81.2%; viability, T/C [12]: 88.6%; viability, T/C (second compound 0.316 µM, first compound 3.16 µM): 84.9%; viability, T/C (second compound 0.316 µM, first compound 10 µM): 78.1%; viability, T/C [13]: 114%; viability, T/C [14]: 95.1%; viability, T/C [15]: 79.3%; viability, T/C [16]: 82.3%; viability, T/C (second compound 1 µM, first compound 3.16 µM): 95.5%; viability, T/C (second compound 1 µM, first compound 10 µM): 90.8%; viability, T/C [17]: 96.4%; viability, T/C [18]: 98.6%; viability, T/C [19]: 96%; viability, T/C [20]: 119%; viability, T/C (second compound 3.16 µM, first compound 3.16 µM): 88.1%; viability, T/C (second compound 3.16 µM, first compound 10 µM): 94.5%; viability, T/C [21]: 98.3%; viability, T/C [22]: 89.8%; viability, T/C [23]: 93%; viability, T/C [24]: 77.6%; viability, T/C (second compound 10 µM, first compound 3.16 µM): 85.4%; viability, T/C (second compound 10 µM, first compound 10 µM): 104%

Question: With CCc1c2c(nc3ccc(O)cc13)-c1cc3c(c(=O)n1C2)COC(=O)[C@]3(O)CC + Nc1ccc(C#CCN(C(=O)Cc2ncc(C(F)(F)F)cc2C(F)(F)F)c2ccc(F)cc2)nn1 as the molecule, how does the pIC50 (second compound 0.0316 µM) read?
Answer: The pIC50 was 7.83.

Question: And the pIC50 (second compound 0.1 µM)?
Answer: Its pIC50 is 7.87.

Question: What about the pIC50 (second compound 0.316 µM) of the same molecule?
Answer: Its pIC50 is 7.96.

Question: And the pIC50 (second compound 1 µM)?
Answer: The pIC50 was 7.90.

Question: And the pIC50 (second compound 3.16 µM)?
Answer: The pIC50 was 7.88.

Question: And the pIC50 (second compound 10 µM)?
Answer: The pIC50 was 7.90.

Question: What about the viability, T/C (second compound 0.0316 µM, first compound 0.00316 µM) of the same molecule?
Answer: Its viability, T/C is 65.4%.

Question: What about the viability, T/C (second compound 0.0316 µM, first compound 0.01 µM) of the same molecule?
Answer: The viability, T/C was 63.6%.

Question: What about the viability, T/C [1] of the same molecule?
Answer: Its viability, T/C is 27.2%.

Question: What about the viability, T/C [2] of the same molecule?
Answer: The viability, T/C was 18.6%.

Question: And the viability, T/C [3]?
Answer: Its viability, T/C is 10.8%.

Question: And the viability, T/C [4]?
Answer: The viability, T/C was 2.67%.

Question: What about the viability, T/C (second compound 0.1 µM, first compound 0.00316 µM) of the same molecule?
Answer: The viability, T/C was 64.9%.

Question: What about the viability, T/C (second compound 0.1 µM, first compound 0.01 µM) of the same molecule?
Answer: The viability, T/C was 60.5%.

Question: What about the viability, T/C [5] of the same molecule?
Answer: The viability, T/C was 23.2%.

Question: And the viability, T/C [6]?
Answer: Its viability, T/C is 14.3%.

Question: And the viability, T/C [7]?
Answer: Its viability, T/C is 9.81%.

Question: What about the viability, T/C [8] of the same molecule?
Answer: The viability, T/C was 2.89%.

Question: What about the viability, T/C (second compound 0.316 µM, first compound 0.00316 µM) of the same molecule?
Answer: Its viability, T/C is 68%.

Question: What about the viability, T/C (second compound 0.316 µM, first compound 0.01 µM) of the same molecule?
Answer: Its viability, T/C is 53.6%.

Question: What about the viability, T/C [9] of the same molecule?
Answer: The viability, T/C was 21.7%.

Question: And the viability, T/C [10]?
Answer: The viability, T/C was 14.7%.

Question: And the viability, T/C [11]?
Answer: The viability, T/C was 9.84%.

Question: And the viability, T/C [12]?
Answer: The viability, T/C was 1.82%.

Question: And the viability, T/C (second compound 1 µM, first compound 0.00316 µM)?
Answer: The viability, T/C was 68.1%.

Question: And the viability, T/C (second compound 1 µM, first compound 0.01 µM)?
Answer: Its viability, T/C is 58.1%.

Question: What about the viability, T/C [13] of the same molecule?
Answer: Its viability, T/C is 24.9%.

Question: What about the viability, T/C [14] of the same molecule?
Answer: Its viability, T/C is 15.6%.

Question: And the viability, T/C [15]?
Answer: Its viability, T/C is 8.49%.

Question: What about the viability, T/C [16] of the same molecule?
Answer: The viability, T/C was 2.23%.

Question: What about the viability, T/C (second compound 3.16 µM, first compound 0.00316 µM) of the same molecule?
Answer: Its viability, T/C is 66.2%.

Question: What about the viability, T/C (second compound 3.16 µM, first compound 0.01 µM) of the same molecule?
Answer: The viability, T/C was 58.9%.

Question: What about the viability, T/C [17] of the same molecule?
Answer: The viability, T/C was 27.4%.

Question: What about the viability, T/C [18] of the same molecule?
Answer: The viability, T/C was 17.6%.

Question: And the viability, T/C [19]?
Answer: Its viability, T/C is 12.5%.

Question: And the viability, T/C [20]?
Answer: The viability, T/C was 3.21%.

Question: And the viability, T/C (second compound 10 µM, first compound 0.00316 µM)?
Answer: Its viability, T/C is 70.2%.

Question: And the viability, T/C (second compound 10 µM, first compound 0.01 µM)?
Answer: The viability, T/C was 57.9%.

Question: What about the viability, T/C [21] of the same molecule?
Answer: Its viability, T/C is 25.9%.

Question: What about the viability, T/C [22] of the same molecule?
Answer: Its viability, T/C is 20.9%.

Question: And the viability, T/C [23]?
Answer: The viability, T/C was 12.7%.

Question: And the viability, T/C [24]?
Answer: Its viability, T/C is 5.79%.
